Assays:
[1] = target: Casein kinase II subunit alpha (Homo sapiens) (UniProt P68400); assay: Inhibition of N-terminal 6 X His-tagged recombinant human full length Casein Kinase 2 alpha subunit expressed in Sf21 insect cells using BODIPY-FL-RRRDDDSDDD-CONH2 as substrate preincubated for 20 mins measured after 90 mins by fluorescence-based assay
HCT-116 = assay: Antiproliferative activity against human HCT116 cells after 72 hrs by Alamar blue assay; format: functional; settings: HCT-116, 72 h

Casein kinase II subunit alpha (Homo sapiens), sequence (P68400 whole entry, looked up): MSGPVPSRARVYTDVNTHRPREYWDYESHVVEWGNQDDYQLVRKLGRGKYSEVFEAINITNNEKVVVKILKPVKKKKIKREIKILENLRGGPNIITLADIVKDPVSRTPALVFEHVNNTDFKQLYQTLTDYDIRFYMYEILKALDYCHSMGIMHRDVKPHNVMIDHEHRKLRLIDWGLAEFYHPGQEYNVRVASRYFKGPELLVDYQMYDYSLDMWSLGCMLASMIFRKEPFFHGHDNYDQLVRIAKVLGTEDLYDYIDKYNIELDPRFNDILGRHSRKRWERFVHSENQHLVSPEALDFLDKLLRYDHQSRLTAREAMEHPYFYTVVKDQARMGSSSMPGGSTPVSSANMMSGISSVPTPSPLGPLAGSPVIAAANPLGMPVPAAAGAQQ

Row | IC50 [1] [nM] | GI50 (HCT-116) [nM] | Structure (SMILES)
1 | < 4000 | 30 | CC(=O)Nc1cc(Nc2cc(NC3CC3)n3ncc(C#N)c3n2)ccc1N(C)CCN(C)C
2 | – | 9 | CC(=O)Nc1cc(Nc2cc(NC3CC3)n3ncc(C#N)c3n2)ccc1N(C)CCN

Reference: ChEMBL document CHEMBL3102745, “Inhibition of CK2: An Attractive Therapeutic Target for Cancer Treatment” (ACS Med Chem Lett, 2013)
